The term IC50 denotes the concentration that gives 50% inhibition. High values mean weaker potency in that assay, low ones greater potency in that assay.

For one assay, the target named is BRD4 BD1 (Homo sapiens, UniProt O60885). The assay can be described thus: BRD TR-FRET assay, BRD4 BD1. In kind it is binding. The method, then:
The assay was performed by TR-FRET technology using a BRD and its corresponding ligand (BET). The TR-FRET signal from the assay is correlated with the amount of ligand binding to the bromodomain. All of the binding reactions were conducted at room temperature. The 20 μL reaction mixture in Assay Buffer contains either bromodomains, BET Ligand, and the indicated amount of inhibitor. For the negative control (blank), 5 μL of the assay buffer was added instead of the BET ligand. The reaction mixture was incubated for 120 min. After the incubation with the ligand, the TR-FRET signal was measured using a Tecan Infinite M1000 plate reader.
(In general: TR-FRET usually uses a lanthanide donor and a delayed reading to cut background.)

A further assay relates to MDA-MB-436 cells. Kind of assay: Cell viability (MTT), MDA-MB-436. In kind it is cell-based. The settings on record: Homo sapiens, MDA-MB-436, 96 h; 4-day treatment, BRCA mutant. The method, then:
MDA-MB-231, MDA-MB-436, and MCF-7 cells were seeded into 96-well plates with the number of 5 × 10^3 in each cell and allowed to incubate for 24 h. Subsequently, various concentrations of the test compounds (ranging from 100 to 0.78 μM with twice gradient dilution) were introduced. After 4 days of incubation, MTT solution was applied, and the cells were incubated for an additional 4 h. Following the removal of the supernatant, the violet crystals were dissolved in 200 μL of DMSO, and the absorbance was measured at 570 nm.

The test system of assay [1] is HEK293T (human embryonic kidney cell). Kind of assay: Cytotoxicity against non-tumor cells, HEK293T. In kind it is cell-based. The settings on record: HEK-293T, 96 h, 4-day treatment. An excerpt: To further establish HF4’s advantage, we employed a web-based in silico cytotoxicity prediction tool (https://www.way2drug.com/clc-pred/index.php), encompassing the prediction against 391 tumor and 47 normal human cell lines,[47] to predict the cytotoxicity of HF4 against nontumor cell lines. […] The absence of nontumor cell lines among the top-ranked ones indicates a limited impact on normal cell line. When threshold of ≥0.15 was applied, among 50 predictions, only a single normal cell line (HEK293) was present in the list, with a predicted probability value below 0.2. We further reinforced the safety profile of HF4 by conducting experimental safety assessments on two normal cell lines. […] In summary, we conducted both computational safety predictions and experimental evaluations on normal cell lines to strengthen the assurance of HF4’s safety profile.
Cytotoxicity of HF4 against non-tumor cells
Figure S6. Cytotoxicity of HF4 against non-tumor cells during a 4-day treatment.
(1 picture or pasted object on this page, not shown here)

The test system of another assay is MCF-7 cells. Kind of assay: Cell cycle detection (PI flow cytometry). The settings on record: for cell cycle G0/G1 / cell cycle G2/M / cell cycle S: 24 h. In kind it is cell-based. The procedure:
Cell cycle analysis was performed using a PI cell cycle detection kit. Following a 24 h treatment, cells were gathered, fixed with 75% ethanol, and stained with PI according to the manufacturer’s protocol. Subsequently, cell cycle analysis was detected using BD FACSCelesta flow cytometry (New York, USA). The obtained data were then subjected to analysis using FlowJo_V10.

A further assay deals with BRD4. Kind of assay: Western blot, BRD4 expression in MCF-7 cells. In kind it is cell-based. The settings on record: MCF-7, 48 h treatment. The procedure: (§1) Following a 48 h treatment, cellular proteins were extracted using RIPA cell lysis buffer containing protease and phosphatase inhibitor cocktail. The protein concentration was assessed by using a BCA assay. Subsequently, equal amounts of these proteins were loaded onto an SDS-PAGE gel and transferred onto a PVDF membrane. The protein-loaded membrane was then blocked using a commercial blocking solution (Beyotime, China) and sequentially incubated with primary and secondary antibodies. Protein bands were visualized using an ECL chemiluminescence kit and quantified using ImageJ software.
Background: In western blotting, separated proteins are transferred to a membrane and probed.

A further assay relates to PARP1. Kind of assay: Western blot, PARP1 expression in MCF-7 cells. In kind it is cell-based. The settings on record: MCF-7, 48 h treatment. The procedure:
as §1

A further assay has as its system CDK6. Kind of assay: Western blot, CDK6 in MCF-7 cells. In kind it is cell-based. The settings on record: MCF-7, 48 h. The procedure: as §1
The test system of a further assay is E2F2. The assay can be described thus: Western blot, E2F2 in MCF-7 cells. In kind it is cell-based. The settings on record: MCF-7, 48 h. The method, then:
as §1

The subject of another assay is Rad51. Kind of assay: Western blot, Rad51 in MCF-7 cells. In kind it is cell-based. The settings on record: MCF-7, 48 h. The procedure: as §1

In the case of `CCc1cc2cc(NS(=O)(=O)c3ccc(F)c(C)c3)ccc2[nH]c1=O` [HF4, N-(3-ethyl-2-oxo-1,2-dihydroquinolin-6-yl)-4-fluoro-3-methylbenzenesulfonamide], the IC50 against BRD4 BD1 amounted to 0.204 ± 0.068 µM; with MDA-MB-436 cells, 4.9 µM; in [1], 21.5 ± 7.4 µM. Also, the “selectivity BRD4 BD1 over BRD4 BD2” value on BRD4 BD1 (IC50 BD1 vs BD2) is given as “four times more potent”. The “effect on cell cycle” value in the assay on MCF-7 cells is “halted the cell cycle at the G0/G1 phase”. For the same compound, the “cell cycle G0/G1” value in the assay on MCF-7 cells (2 μM) is 83.0%; with MCF-7 cells (4 μM), 89.0%; in the assay on MCF-7 cells (8 μM), 92.0%. For the same compound, the “cell cycle G2/M” value in the assay with MCF-7 cells (2 μM) is listed as 0.51%; in the assay on MCF-7 cells (4 μM) it was 2.96%; in the assay with MCF-7 cells (8 μM) it was 4.55%. In addition, the results for the “cell cycle S” value in the assay with MCF-7 cells (2 μM), with MCF-7 cells (4 μM) and with MCF-7 cells (8 μM) were 17.0%, 9.42% and 7.63%, respectively. The BRD4 expression result in the assay with BRD4 is listed as “an increase but to a much lesser extent than JQ1”. Besides, in the assay with PARP1, the PARP1 expression entry is reported as “limited effect”. Moreover, the CDK6 expression entry in the assay with CDK6 is on record as “dose-dependently lowered”. Also, in the assay with E2F2, the E2F2 expression result is on record as “suppressed”. Moreover, the “expression of Rad51” value in the assay with Rad51 is “significantly reduced”.
